# US20260176228A1, “MODULATORS OF LIVER RECEPTOR HOMOLOGUE 1 (LRH-1) AND USES” (Emory University, priority 2022, published 2026)
# pEC50, pKi: −log10 of the molar value.
# What was measured:
# [1] = target: T1, LRH-1 LBD (Homo sapiens, UniProt O00482); assay: FP competition (binding) assay; details: interval in brackets in the cell
# T1 construct: LRH-1 LBD (residues 299-541) in the pMSC7 vector; His tag; made in house; host or cells: BL21 (DE3) pLysS E. coli
# [2] = target: T2, LRH-1 (Homo sapiens, UniProt O00482); assay: Luciferase reporter (activation) assay in HeLa cells transfected with full-length LRH-1 and SHP-luc reporter; format: cell-based; details: 24 hours treatment, interval in brackets in the cell
# T2 construct: The transfected plasmids included full-length LRH-1 in a pCI vector (5 ng/well); expressed in transfected cells; host or cells: HeLa cells
# Method: HeLa cells were seeded at a density of 10,000 cells per well in white-walled, clear-bottomed 96-well culture plates. The next day, cells were transfected with LRH-1 and reporters, using Fugene™ HD (Roche; Indianapolis, IN) at a ratio of 5:2 Fugene™ (μl): DNA (μg). The transfected plasmids included full-length LRH-1 in a pCI vector (5 ng/well), and a SHP-luc reporter, encoding the LRH-1 response element and surrounding sequence from the SHP promoter cloned upstream of firefly luciferase in the pGL3 basic vector (50 ng/well). Cells were also co-transfected with a constitutive Renilla luciferase reporter (utilizing the CMV promoter), which was used for normalization of firefly signal (1 ng/well). Control cells received pCI empty vector at 5 ng/well in place of LRH-1-pCI. Agonists were dissolved in DMSO and then diluted into media, with a final concentration of 0.3% DMSO in all wells. Luciferase signal was quantified using the DualGlo™ kit (Promega; Madison, WI). Experiments were conducted at least two times in triplicate. Compounds were synthesized and evaluated in biological assays.
# [3] = target: T1, LRH-1 LBD; assay: Thermal stability assay (Tycho NT.6) of LRH-1 LBD complexed with ligands; format: binding; details: LRH-1 LBD with 5-fold molar excess of ligand; for Inflection Point (Thermal Stability), shift in parentheses: value in parentheses
# Method: Thermal shift was also assessed for each of the compounds to determine the protein thermal stability. Thermal stability of the LRH-1 LBD complexed with ligands was determined using a Tycho NT.6 Nanotemper. The LRH-1 LBD was incubated with 5-fold molar excess of ligand (final DMSO concentration was 1.4%) overnight at 4° C. in assay buffer (150 mM NaCl, 20 mM Tris-HCl, and 5% glycerol (pH 7.4)). Complexes were centrifuged at high speed for five minutes and then loaded into capillaries. Tryptophan/tyrosine fluorescence was monitored at wavelengths of 330 nm and 350 nm over a 30° C./min gradient (35° C.-95° C.). The inflection point was determined with Tycho NT.6 software. Two separate experiments were conducted in triplicate.
# [4] = test system: diabetic mice; details: diabetic mice fed DLPC; Lee et al. Nature 2011; cited from earlier work
# [5] = test system: other nuclear receptors (NRs); assay: Nuclear receptor cross-reactivity in reporter cells; format: cell-based; details: 2 μM in reporter cells; normalized to reference agonist for each receptor
# Method: 6N-10CA-ME was introduced to reporter cells at 2 μM and the activity of respective NRs was tested. Data are normalized relative to activity induced by the appropriate reference agonist for each receptor.
# SF-1 activity was assessed using RT-qPCR for target genes (e.g., Star, Fdps, Hmgcr), though morphological/histological examination of these organs and by monitoring circulating levels of cortisol, aldosterone and androsterone using targeted LC/MS/MS.
# [6] = test system: hepatic LRH-1; assay: Liver target gene expression in H-mLRH-1 mice (RNA-seq, RT-qPCR); format: in vivo; details: 30 mg/Kg IP injection
# Method: FIGS. 2A, 2B, and 2C show the target gene expression driven by 6N-10CA-ME. FIG. 2A is a Volcano Plot showing RNA-seq of H-mLRH-1 mice treated with 3 mg/Kg of 6N-10CA-ME via an intraperitoneal injection. FIG. 2B is a Volcano Plot showing RNA-seq of H-mLRH-1 mice treated with 30 mg/Kg of 6N-10CA-ME via an intraperitoneal injection. FIG. 2C is a RT-qPCR showing target gene expression at 3 and 30 mg/kg doses.
# The tissue distribution of compounds as described herein and the dosage needed for the in vivo activation of hepatic LRH-1 were evaluated. For these studies, H-mLRH-1 mice (male and female; 10 weeks of age) were used. A single dose time course experiment was conducted in which different cohorts of H-mLRH-1 mice (n=6) were given a high dose (i.e., 30 mg/kg compound) via oral and intraperitoneal (IP) delivery. Liver tissue was harvested and the gene expression of Cyp7a1, Scarb1, ApoA4, and Shp was measured using standard qPCR methods at 1, 3, 6, 12, and 24 hrs. The time of peak target gene expression for a dose finding study was selected. Different cohorts of H-mLRH-1 mice were given 6 doses of the compounds using a half-log scale (i.e., 0, 0.003, 0.03, 0.3, 3, and 30 mg/kg) via oral or IP delivery. Collected liver tissue was used to monitor the expression of the genes listed above.
# [7] = target: SF-1 (Homo sapiens, UniProt Q13285); assay: SF-1 LUC-reporter gene activation in cultured cells; format: cell-based
# [8] = test system: H-mLRH-1 mice with diet-induced obesity; assay: Diet-induced obesity (HFD) model, glucose tolerance; format: in vivo; details: HFD (60% fat) mice, 3 mg/kg, intraperitoneal daily from 12 to 16 weeks of HFD
# Method: Male and female mice were treated with 6N-10CA-ME via an intraperitoneal injection starting at 12 weeks of High Fat Diet (HFD; 60% fat) feeding and continuing daily to 16 weeks of HFD feeding. (Panel A) Summary of body weights of mice in each group at 0, 12, and 16 weeks of HFD feeding. (Panels B and C) Fasting blood glucose (mg/dL) levels of mice in each group at 12 and 16 weeks of HFD feeding. (Panel D) Glucose tolerance tests (GTT) following administration of glucose (2 g/kg) at 12 and 16 weeks of HFD feeding. (Panel E) Area under the curve (AUC) summary of GTT at 12 and 16 weeks of HFD feeding. Data are represented as means+/−SEM. Sample size is 6-17 per group. **** p<0.0001 vs. chow. Data were analyzed with a two-way ANOVA with Tukey multiple comparison test.
# In this study, a mouse model of DIO was used to evaluate the in vivo efficacy of the compounds as described herein, including the ability of the compounds to (1) attenuate hepatic steatosis and (2) improve glucose tolerance and insulin resistance.
# H-mLRH-1 mice (male and female) were fed one of the following diets (OpenSource Diets) for 16 weeks starting at 8 weeks of age: (1) Control Diet (10% fat diet, D12450Ji) or (2) High Fat Diet (HFD, 60% fat; D12492i). […]
# T1 sequence (O00482 299-541): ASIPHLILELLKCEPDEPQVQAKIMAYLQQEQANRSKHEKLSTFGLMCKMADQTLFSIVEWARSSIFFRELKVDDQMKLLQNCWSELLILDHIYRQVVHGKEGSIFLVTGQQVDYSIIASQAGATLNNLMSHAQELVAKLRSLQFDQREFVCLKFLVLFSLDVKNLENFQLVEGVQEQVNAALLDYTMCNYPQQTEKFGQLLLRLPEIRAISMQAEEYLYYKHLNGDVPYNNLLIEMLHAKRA
# T2 sequence (O00482 whole entry): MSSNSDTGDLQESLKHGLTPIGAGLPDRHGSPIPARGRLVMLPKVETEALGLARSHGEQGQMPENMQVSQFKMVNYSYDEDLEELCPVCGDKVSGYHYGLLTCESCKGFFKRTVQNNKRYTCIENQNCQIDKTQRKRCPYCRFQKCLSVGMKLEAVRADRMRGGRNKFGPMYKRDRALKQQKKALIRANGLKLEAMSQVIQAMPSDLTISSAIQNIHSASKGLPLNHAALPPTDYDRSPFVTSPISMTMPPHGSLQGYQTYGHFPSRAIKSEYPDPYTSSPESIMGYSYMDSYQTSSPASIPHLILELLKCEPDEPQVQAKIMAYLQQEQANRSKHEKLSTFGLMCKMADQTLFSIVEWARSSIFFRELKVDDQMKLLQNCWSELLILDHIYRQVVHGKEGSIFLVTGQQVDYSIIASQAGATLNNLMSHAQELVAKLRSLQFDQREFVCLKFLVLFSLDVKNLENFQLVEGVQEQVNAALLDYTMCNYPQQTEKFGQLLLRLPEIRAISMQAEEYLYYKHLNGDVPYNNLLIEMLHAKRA
# SF-1, sequence (Q13285 whole entry): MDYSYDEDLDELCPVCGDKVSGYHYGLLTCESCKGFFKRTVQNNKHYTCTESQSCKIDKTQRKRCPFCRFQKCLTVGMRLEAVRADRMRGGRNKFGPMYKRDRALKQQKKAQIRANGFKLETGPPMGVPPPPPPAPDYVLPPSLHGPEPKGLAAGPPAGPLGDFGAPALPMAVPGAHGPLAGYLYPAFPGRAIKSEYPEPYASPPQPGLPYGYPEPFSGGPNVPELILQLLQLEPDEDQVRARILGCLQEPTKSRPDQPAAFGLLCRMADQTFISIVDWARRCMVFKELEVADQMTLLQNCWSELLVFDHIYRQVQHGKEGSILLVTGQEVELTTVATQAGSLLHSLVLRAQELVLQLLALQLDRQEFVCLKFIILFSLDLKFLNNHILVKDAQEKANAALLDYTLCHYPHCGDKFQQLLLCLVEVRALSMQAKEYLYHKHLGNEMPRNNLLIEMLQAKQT
Structure (SMILES),pKi [1],pEC50 [2],Inflection Point (Thermal Stability) [3] [°C],"Inflection Point (Thermal Stability), shift in parentheses [3]",Glucose tolerance and hepatic fat accumulation [4],Cross-reactivity with other nuclear receptors [5],Liver target gene expression [6],SF-1 activity (LUC-reporter gene activation) [7],Glucose intolerance [8]
"C=C(c1ccccc1)C12CCC(O)C1CC(CCCCOCCCCC(=O)O)=C2c1ccccc1 (stereo not drawn) [Compound 10CA-ME, 5-(4-(6-hydroxy-3-phenyl-3a-(1-phenylvinyl)-1,3a,4,5,6,6a-hexahydropentalen-2-yl)butoxy) pentanoic acid]",6.96,6.06,59,+3.9 °C,–,–,–,–,–
"C=C(c1ccccc1)C12CCC(O)C1CC(CCOCCCOCCC(=O)O)=C2c1ccccc1 (stereo not drawn) [Compound 10CA-DE, 3-(3-(2-(6-hydroxy-3-phenyl-3a-(1-phenylvinyl)-1,3a,4,5,6,6a-hexahydropentalen-2-yl)ethoxy)propoxy) propanoic acid]",5.00,5.49,57,+1.9 °C,–,–,–,–,–
"CCCCCCCCCCCC(=O)OC[C@H](COP(=O)([O-])OCC[N+](C)(C)C)OC(=O)CCCCCCCCCCC [DLPC, dilauroyl-phosphatidylcholine]",–,–,–,–,improved glucose tolerance and reduced hepatic fat accumulation,–,–,–,–
"C=C(c1ccccc1)C12CCC(NS(N)(=O)=O)C1CC(CCCCOCCCCC(=O)O)=C2c1ccccc1 (stereo not drawn) [Compound 6N-10CA-ME, 5-(4-(3-phenyl-3a-(1-phenylvinyl)-6-(sulfamoylamino)-1,3a,4,5,6,6a-hexahydropentalen-2-yl)butoxy) pentanoic acid]",7.92,7.30,65,+9.9 °C,–,minimal cross-reactivity,elevation of Cyp7a1 and Apoa4 and a reduction in Fasn,displays SF-1 activity,reduces glucose intolerance
"C=C(c1ccccc1)C12CCC(NS(N)(=O)=O)C1CC(CCOCCCOCCC(=O)O)=C2c1ccccc1 (stereo not drawn) [Compound 6N-10CA-DE, 3-(3-(2-(3-phenyl-3a-(1-phenylvinyl)-6-(sulfamoylamino)-1,3a,4,5,6,6a-hexahydropentalen-2-yl)ethoxy)propoxy) propanoic acid]",6.32,5.92,61,+5.9 °C,–,–,–,–,–
